# Experimental data from US20220031800A1, “PEPTIDES FOR TREATING NON-EXUDATIVE MACULAR DEGENERATION AND OTHER DISORDERS OF THE EYE” (Allegro Pharmaceuticals, LLC, priority 2019, published 2022).
# Square brackets hold non-standard residues; d marks the D form. Peptide text beside a SMILES is read from it. Cya = N[C@@H](CS(=O)(=O)O)C(=O)O
# System: study eye of subjects with intermediate non-exudative AMD
# Assay: Best corrected visual acuity (BCVA, letters read) in Dry AMD study
# Type: in vivo, human
# Details: for Proportion of subjects with gain of at least 8 BCVA letters read: post hoc
# Method: The subjects in Groups 1 and 2 received the following treatments: Thus, subjects in Group 1 received an initial sham injection in the study eye followed by a single 1 mg dose of risuteganib in the study eye. The subjects in Group 2 received a total of two (2) doses of risuteganib (1 mg per dose) in the study eye. Numerous study assessments were conducted at various time points throughout the study. Included among these study assessments were; refractive eye examinations, determinations of BCVA AND low-luminance BCVA, Lanthony D-15 color vision test, measurement of intraocular pressure (IOP), Indirect ophthalmoscopy/dilated fundus examinations and spectral-domain optical coherence tomography (SD-OCT). Also, blood and saliva samples were obtained from each subject for genetic analysis. The above-listed study assessments were performed at the time points indicated in Table 1, below: For this study, a primary efficacy endpoint was deemed to be the percentage of population with an improvement in BCVA of at least 8 letters (1.5 lines) BCVA.
# [1] = Week 4, Group 2 (1 mg IVT day 1 + wk 16), subset gain ≥8 letters at any week, n = 14
# [2] = Week 4, Group 2 (1 mg IVT day 1 + wk 16), subset gain ≥8 letters at primary endpoint week, n = 12
# [3] = Week 8, Group 2 (1 mg IVT day 1 + wk 16), subset gain ≥8 letters at any week, n = 14
# [4] = Week 8, Group 2 (1 mg IVT day 1 + wk 16), subset gain ≥8 letters at primary endpoint week, n = 12
# [5] = Week 12, Group 2 (1 mg IVT day 1 + wk 16), subset gain ≥8 letters at any week, n = 14
# [6] = Week 12, Group 2 (1 mg IVT day 1 + wk 16), subset gain ≥8 letters at primary endpoint week, n = 12
# [7] = Week 16, Group 2 (1 mg IVT day 1 + wk 16), subset gain ≥8 letters at any week, n = 14
# [8] = Week 16, Group 2 (1 mg IVT day 1 + wk 16), subset gain ≥8 letters at primary endpoint week, n = 12
# [9] = Week 20, Group 1 crossover (sham day 1, 1 mg IVT wk 16), subset gain ≥8 letters at any week, n = 3
# [10] = Week 20, Group 1 crossover (sham day 1, 1 mg IVT wk 16), subset gain ≥8 letters at primary endpoint week, n = 2
# [11] = Week 20, Group 2 (1 mg IVT day 1 + wk 16), subset gain ≥8 letters at any week, n = 14
# [12] = Week 20, Group 2 (1 mg IVT day 1 + wk 16), subset gain ≥8 letters at primary endpoint week, n = 12
# [13] = Week 24, Group 1 crossover (sham day 1, 1 mg IVT wk 16), subset gain ≥8 letters at any week, n = 3
# [14] = Week 24, Group 1 crossover (sham day 1, 1 mg IVT wk 16), subset gain ≥8 letters at primary endpoint week, n = 2
# [15] = Week 24, Group 2 (1 mg IVT day 1 + wk 16), subset gain ≥8 letters at any week, n = 14
# [16] = Week 24, Group 2 (1 mg IVT day 1 + wk 16), subset gain ≥8 letters at primary endpoint week, n = 12
structure (smiles),measurement,setting,value
"C[C@@H](O)[C@H](NC(=O)[C@H](CS(=O)(=O)O)NC(=O)CNC(=O)[C@H](CCCNC(=N)N)NC(=O)CN)C(=O)N1CCC[C@H]1C(=O)O [risuteganib, Glycyl-L-arginylglycyl-3-sulfo-L-alanyl-L-threonyl-L-proline] (H-GRG[Cya]TP-OH)",Time of peak effect after treatment,"BCVA, after each 1 mg intravitreal dose",12 weeks
same,Proportion of subjects with gain of at least 8 BCVA letters read,"Group 2, GA Subgroup (GA in central 6-mm subfield)",40%
same,Proportion of subjects with gain of at least 8 BCVA letters read,"Group 2, No GA Subgroup (no GA in central 6-mm subfield)",80%
same,"BCVA change in letters read, mean",[1],4.0 letters read
same,"BCVA change in letters read, median",[1],3.0 letters read
same,"BCVA letters read, mean",[1],66.5 letters read
same,"BCVA letters read, median",[1],67.0 letters read
same,"BCVA change in letters read, mean",[2],4.1 letters read
same,"BCVA change in letters read, median",[2],3.0 letters read
same,"BCVA letters read, mean",[2],67.0 letters read
same,"BCVA letters read, median",[2],68.5 letters read
same,"BCVA change in letters read, mean",[3],5.8 letters read
same,"BCVA change in letters read, median",[3],5.5 letters read
same,"BCVA letters read, mean",[3],68.3 letters read
same,"BCVA letters read, median",[3],71.0 letters read
same,"BCVA change in letters read, mean",[4],5.6 letters read
same,"BCVA change in letters read, median",[4],5.5 letters read
same,"BCVA letters read, mean",[4],68.5 letters read
same,"BCVA letters read, median",[4],72.0 letters read
same,"BCVA change in letters read, mean",[5],7.1 letters read
same,"BCVA change in letters read, median",[5],5.5 letters read
same,"BCVA letters read, mean",[5],69.6 letters read
same,"BCVA letters read, median",[5],69.5 letters read
same,"BCVA change in letters read, mean",[6],7.7 letters read
same,"BCVA change in letters read, median",[6],5.5 letters read
same,"BCVA letters read, mean",[6],70.6 letters read
same,"BCVA letters read, median",[6],72.0 letters read
same,"BCVA change in letters read, mean",[7],6.4 letters read
same,"BCVA change in letters read, median",[7],8.0 letters read
same,"BCVA letters read, mean",[7],68.9 letters read
same,"BCVA letters read, median",[7],69.5 letters read
same,"BCVA change in letters read, mean",[8],6.3 letters read
same,"BCVA change in letters read, median",[8],8.0 letters read
same,"BCVA letters read, mean",[8],69.2 letters read
same,"BCVA letters read, median",[8],70.5 letters read
same,"BCVA change in letters read, mean",[9],2.0 letters read
same,"BCVA change in letters read, median",[9],0.0 letters read
same,"BCVA letters read, mean",[9],71.7 letters read
same,"BCVA letters read, median",[9],75.0 letters read
same,"BCVA change in letters read, mean",[10],0.0 letters read
same,"BCVA change in letters read, median",[10],0.0 letters read
same,"BCVA letters read, mean",[10],70.0 letters read
same,"BCVA letters read, median",[10],70.0 letters read
same,"BCVA change in letters read, mean",[11],9.8 letters read
same,"BCVA change in letters read, median",[11],10.0 letters read
same,"BCVA letters read, mean",[11],72.3 letters read
same,"BCVA letters read, median",[11],74.5 letters read
same,"BCVA change in letters read, mean",[12],11.3 letters read
same,"BCVA change in letters read, median",[12],10.0 letters read
same,"BCVA letters read, mean",[12],74.2 letters read
same,"BCVA letters read, median",[12],75.0 letters read
same,"BCVA change in letters read, mean",[13],8.7 letters read
same,"BCVA change in letters read, median",[13],10.0 letters read
same,"BCVA letters read, mean",[13],78.3 letters read
same,"BCVA letters read, median",[13],79.0 letters read
same,"BCVA change in letters read, mean",[14],8.0 letters read
same,"BCVA change in letters read, median",[14],8.0 letters read
same,"BCVA letters read, mean",[14],78.0 letters read
same,"BCVA letters read, median",[14],78.0 letters read
same,"BCVA change in letters read, mean",[15],10.2 letters read
same,"BCVA change in letters read, median",[15],9.5 letters read
same,"BCVA letters read, mean",[15],72.7 letters read
same,"BCVA letters read, median",[15],74.5 letters read
same,"BCVA change in letters read, mean",[16],11.4 letters read
same,"BCVA change in letters read, median",[16],10.0 letters read
